# Reference: patent US10538555B2, “Macrocyclic inhibitors of the PD-1/PD-L1 and CD80(B7-1)/PD-L1 protein/protein interactions” (BRISTOL-MYERS SQUIBB COMPANY, priority 2014, dated 2020)
# pIC50: −log10 of the molar value. *1 amine or outer side, *2 acyl side, *3 side chain or, on linkers, in order; H or OH if unused. Where a SMILES comes first, the peptide text is derived from it. Bridges are numbered along the chain shown (N, C = ends). [ ]: non-standard residue; d: D form. ξ: configuration not given here. Trp(1-CH2COOH) = N[C@@H](Cc1cn(CC(=O)O)c2ccccc12)C(=O)O; Phe(3,4,5-F3) = N[C@@H](Cc1cc(F)c(F)c(F)c1)C(=O)O; Phe(3,4-F2) = N[C@@H](Cc1ccc(F)c(F)c1)C(=O)O; Phe(4-Cl) = N[C@@H](Cc1ccc(Cl)cc1)C(=O)O; Phe(4-F) = N[C@@H](Cc1ccc(F)cc1)C(=O)O; d(cisHyp) = O=C(O)[C@H]1C[C@@H](O)CN1; Bta = N[C@@H](Cc1csc2ccccc12)C(=O)O; Hyp = O=C(O)[C@@H]1C[C@@H](O)CN1; NMeF = CN[C@@H](Cc1ccccc1)C(=O)O; X1 = O=C([C@H]1COCCN1[*:1])[*:2]; dNMeF = CN[C@H](Cc1ccccc1)C(=O)O; dHyp = O=C(O)[C@H]1C[C@H](O)CN1; NMehSer = CN[C@@H](CCO)C(=O)O; NMeNle = CCCC[C@H](NC)C(=O)O; Pip = O=C(O)[C@@H]1CCCCN1; hSer = N[C@@H](CCO)C(=O)O; NMeA = CN[C@@H](C)C(=O)O; Orn = NCCC[C@H](N)C(=O)O; dThz = O=C(O)[C@H]1CSCN1; Dab = NCC[C@H](N)C(=O)O; Dap = NC[C@H](N)C(=O)O; ξC = NC(CS)C(=O)O; Sar = CNCC(=O)O
# Biological target: T1, Human PD-L1/PD-1 (Homo sapiens, UniProt Q9NZQ7)
# T1 construct: TVMV protease cleavage site (C); made in house; host or cells: HEK293T cells
# T1 sequence (Q9NZQ7 with tags, fused parts or gaps): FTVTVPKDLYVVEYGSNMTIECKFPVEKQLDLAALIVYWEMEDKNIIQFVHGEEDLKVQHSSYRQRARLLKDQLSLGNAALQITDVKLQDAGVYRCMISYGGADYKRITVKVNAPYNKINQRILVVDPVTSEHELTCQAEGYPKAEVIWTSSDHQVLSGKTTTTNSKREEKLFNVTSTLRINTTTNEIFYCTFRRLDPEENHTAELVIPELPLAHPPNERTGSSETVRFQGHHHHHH
# Assay: HTRF Human PD-L1/PD-1 binding assay (PD-1-Ig/PD-L1-His)
# Conditions: PD-L1-His 10 nM, PD-1-Ig 20 nM; class symbol; read-out: HTRF Human PD-L1/PD-1 Binding Assay IC50 Range
# Method in brief: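 Step 1: compound with PD-L1-His (10 nM final), 15 min. Step 2: PD-1-Ig (20 nM final), 15 min. Step 3: Eu-cryptate anti-Ig (1 nM) plus APC anti-His (20 nM), 30 min equilibration. Signal taken as 665 nm/620 nm ratio.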
row,pIC50,SMILES
1,8.00 to 9.00,"CCCC[C@H]1C(=O)N2C[C@H](O)C[C@@H]2C(=O)N[C@@H](CC(=O)O)C(=O)N[C@@H](C(C)C)C(=O)N(C)[C@H](Cc2ccccc2)C(=O)N[C@@H](CCC(N)=O)C(=O)N2C[C@H](O)C[C@@H]2C(=O)N[C@@H](Cc2c[nH]c3ccccc23)C(=O)N[C@@H](Cc2ccc(O)cc2)C(=O)N[C@@H](CCCN)C(=O)N[C@H](C(=O)NCC(N)=O)CSCC(=O)N[C@@H](Cc2ccc(F)c(F)c2)C(=O)N(C)[C@@H](Cc2ccccc2)C(=O)N1C [Example 9303] ({CH2CO}-[Phe(3,4-F2)][NMeF][NMeNle][d(cisHyp)]DV[dNMeF]Q[d(cisHyp)]WY[Orn]CG-NH2; thioether N-13)"
2,8.00 to 9.00,"COCC[C@H]1C(=O)N2C[C@@H](O)C[C@@H]2C(=O)N[C@@H](CC(=O)O)C(=O)N[C@@H](C(C)C)C(=O)N(C)[C@@H](Cc2ccccc2)C(=O)N[C@@H](CC(=O)O)C(=O)N2CCOC[C@@H]2C(=O)N[C@@H](Cc2c[nH]c3ccccc23)C(=O)N[C@@H](Cc2ccc(O)cc2)C(=O)N[C@@H](CCCN)C(=O)N[C@H](C(=O)NCC(N)=O)CSCC(=O)N[C@@H](Cc2cc(F)c(F)c(F)c2)C(=O)N(C)[C@@H](Cc2ccccc2)C(=O)N1C [Example 9269] ({CH2CO}-[Phe(3,4,5-F3)][NMeF][NMehSer](Me)[dHyp]DV[NMeF]D[X1]WY[Orn]CG-NH2; thioether N-13)"
3,8.00 to 9.00,"CCCC[C@H]1C(=O)N2C[C@H](O)C[C@@H]2C(=O)N[C@@H](CC(=O)O)C(=O)N[C@@H](C(C)C)C(=O)N(C)[C@@H](Cc2ccccc2)C(=O)N[C@@H](CCCCN)C(=O)N2C[C@H](O)C[C@@H]2C(=O)N[C@@H](Cc2c[nH]c3ccccc23)C(=O)N[C@@H](Cc2ccc(O)cc2)C(=O)N[C@@H](CC(C)C)C(=O)N[C@H](C(=O)NCC(N)=O)CSCC(=O)N[C@@H](Cc2ccc(F)c(F)c2)C(=O)N(C)[C@@H](Cc2ccccc2)C(=O)N1C [Example 9318] ({CH2CO}-[Phe(3,4-F2)][NMeF][NMeNle][d(cisHyp)]DV[NMeF]K[d(cisHyp)]WYLCG-NH2; thioether N-13)"
4,7.00 to 8.00,CCCC[C@H]1C(=O)N2CCC[C@@H]2C(=O)N[C@@H](CC(=O)O)C(=O)N[C@@H](C)C(=O)N(C)[C@@H](Cc2ccccc2)C(=O)N[C@@H](Cc2ccc(O)cc2)C(=O)N(C)CC(=O)N[C@@H](Cc2c[nH]c3ccccc23)C(=O)N[C@@H](Cc2ccc(O)cc2)C(=O)N[C@@H](CC(C)C)C(=O)N[C@H](C(=O)NCC(N)=O)CSCC(=O)N[C@@H](Cc2ccccc2)C(=O)N(C)[C@@H](Cc2ccccc2)C(=O)N1C [Example 10044] ({CH2CO}-F[NMeF][NMeNle][dP]DA[NMeF]Y[Sar]WYLCG-NH2; thioether N-13)
5,5.00 to 6.00,CCCC[C@H]1C(=O)N(C)[C@@H](CCCC)C(=O)N[C@@H](CCCNC(=N)N)C(=O)NC(C(=O)NCC(N)=O)CSCC(=O)N[C@@H](Cc2ccc(O)cc2)C(=O)N(C)[C@@H](C)C(=O)N[C@@H](CC(N)=O)C(=O)N2CCC[C@H]2C(=O)N[C@@H](CCO)C(=O)N[C@@H](CC(C)C)C(=O)N2CCC[C@H]2C(=O)N[C@@H](Cc2c[nH]c3ccccc23)C(=O)N[C@@H](CO)C(=O)N[C@@H](Cc2c[nH]c3ccccc23)C(=O)N1C (stereo partly shown) [Example 9148] ({CH2CO}-Y[NMeA]NP[hSer]LPWSW[NMeNle][NMeNle]R[ξC]G-NH2; thioether N-14)
6,7.00 to 8.00,CCCC[C@H]1C(=O)N(C)[C@@H](CCCC)C(=O)N[C@@H](CN)C(=O)N[C@H](C(=O)NCC(N)=O)CSCC(=O)N[C@@H](Cc2ccc(O)cc2)C(=O)N(C)[C@@H](C)C(=O)N[C@@H](CC(N)=O)C(=O)N2CCC[C@H]2C(=O)N[C@@H](Cc2c[nH]cn2)C(=O)N[C@@H](CC(C)C)C(=O)N2CCC[C@H]2C(=O)N[C@@H](Cc2c[nH]c3ccccc23)C(=O)N[C@@H](CO)C(=O)N[C@@H](Cc2c[nH]c3ccccc23)C(=O)N1C [Example 5182]
7,8.00 to 9.00,CCCC[C@H]1C(=O)N(C)[C@@H](CCCC)C(=O)N[C@@H](CCC(=O)O)C(=O)N[C@H](C(=O)NCC(N)=O)CSCC(=O)N[C@@H](Cc2ccc(O)cc2)C(=O)N(C)[C@@H](C)C(=O)N[C@@H](CC(N)=O)C(=O)N2CCC[C@H]2C(=O)N[C@@H](CN)C(=O)N[C@@H](CC(C)C)C(=O)N2C[C@H](O)C[C@H]2C(=O)N[C@@H](Cc2c[nH]c3ccccc23)C(=O)N[C@@H](CCN)C(=O)N[C@@H](Cc2c[nH]c3ccccc23)C(=O)N1C [Example 5161] ({CH2CO}-Y[NMeA]NP[Dap]L[Hyp]W[Dab]W[NMeNle][NMeNle]ECG-NH2; thioether N-14)
8,8.00 to 9.00,CCCC[C@H]1C(=O)N(C)[C@@H](CCCC)C(=O)N[C@@H](CCC(=O)O)C(=O)N[C@H](C(=O)NCC(N)=O)CSCC(=O)N[C@@H](Cc2ccc(O)cc2)C(=O)N(C)[C@@H](C)C(=O)N[C@@H](CC(N)=O)C(=O)N2CCC[C@H]2C(=O)N[C@@H](Cc2cnc[nH]2)C(=O)N[C@@H](CCC(=O)O)C(=O)N2C[C@H](O)C[C@H]2C(=O)N[C@@H](Cc2c[nH]c3ccccc23)C(=O)N[C@@H](CCN)C(=O)N[C@@H](Cc2cn(CC(=O)O)c3ccccc23)C(=O)N1C [Example 6134] ({CH2CO}-Y[NMeA]NPHE[Hyp]W[Dab][Trp(1-CH2COOH)][NMeNle][NMeNle]ECG-NH2; thioether N-14)
9,7.00 to 8.00,CCCC[C@H]1C(=O)N2CCC[C@@H]2C(=O)N[C@@H](CO)C(=O)N[C@@H](C(C)C)C(=O)N(C)[C@@H](Cc2ccccc2)C(=O)N[C@@H](Cc2ccc(O)cc2)C(=O)N(C)CC(=O)N[C@@H](Cc2csc3ccccc23)C(=O)N[C@@H](Cc2ccc(O)cc2)C(=O)N[C@@H](CC(C)C)C(=O)N[C@H](C(=O)NCC(N)=O)CSCC(=O)N[C@@H](Cc2ccccc2)C(=O)N(C)[C@@H](Cc2ccccc2)C(=O)N1C [Example 10063] ({CH2CO}-F[NMeF][NMeNle][dP]SV[NMeF]Y[Sar][Bta]YLCG-NH2; thioether N-13)
10,7.00 to 8.00,CCCC[C@H]1C(=O)N(C)[C@@H](CCCC)C(=O)N[C@@H](CCCNC(=N)N)C(=O)N[C@H](C(=O)NCC(N)=O)CSCC(=O)N[C@@H](Cc2ccc(Cl)cc2)C(=O)N(C)[C@@H](C)C(=O)N[C@@H](CC(N)=O)C(=O)N2CCC[C@H]2C(=O)N[C@@H](Cc2cnc[nH]2)C(=O)N[C@@H](CCC(=O)O)C(=O)N2C[C@H](O)C[C@H]2C(=O)N[C@@H](Cc2c[nH]c3ccccc23)C(=O)N[C@@H](CO)C(=O)N[C@@H](Cc2c[nH]c3ccccc23)C(=O)N1C [Example 7080] ({CH2CO}-[Phe(4-Cl)][NMeA]NPHE[Hyp]WSW[NMeNle][NMeNle]RCG-NH2; thioether N-14)
11,8.00 to 9.00,CCCC[C@H]1C(=O)N(C)[C@@H](CCCC)C(=O)N[C@@H](CCC(=O)O)C(=O)N[C@H](C(=O)NCC(N)=O)CSCC(=O)N[C@@H](Cc2ccc(O)cc2)C(=O)N2CCCC[C@H]2C(=O)N[C@@H](CC(=O)O)C(=O)N2CCC[C@H]2C(=O)N[C@@H](Cc2cnc[nH]2)C(=O)N[C@@H](CCC(=O)O)C(=O)N2C[C@H](O)C[C@H]2C(=O)N[C@@H](Cc2c[nH]c3ccccc23)C(=O)N[C@@H](CO)C(=O)N[C@@H](Cc2c[nH]c3ccccc23)C(=O)N1C [Example 1256] ({CH2CO}-Y[Pip]DPHE[Hyp]WSW[NMeNle][NMeNle]ECG-NH2; thioether N-14)
12,8.00 to 9.00,CCCC[C@H]1C(=O)N2CCC[C@@H]2C(=O)N[C@@H](CC(=O)O)C(=O)N[C@@H](C(C)C)C(=O)N(C)[C@@H](Cc2ccccc2)C(=O)N[C@@H](CC(=O)O)C(=O)N2CCC[C@@H]2C(=O)N[C@@H](Cc2c[nH]c3ccccc23)C(=O)N[C@@H](Cc2ccc(O)cc2)C(=O)N[C@@H](CC(C)C)C(=O)N[C@H](C(=O)NCC(N)=O)CSCC(=O)N[C@@H](Cc2ccc(F)cc2)C(=O)N(C)[C@@H](Cc2ccccc2)C(=O)N1C [Example 10106] ({CH2CO}-[Phe(4-F)][NMeF][NMeNle][dP]DV[NMeF]D[dP]WYLCG-NH2; thioether N-13)
13,7.00 to 8.00,CCCC[C@H]1C(=O)N(C)[C@@H](CCCC)C(=O)N[C@@H](CCC(=O)O)C(=O)N[C@H](C(=O)NCC(N)=O)CSCC(=O)N[C@@H](Cc2ccc(O)cc2)C(=O)N(C)[C@@H](C)C(=O)N[C@@H](CC(=O)O)C(=O)N2CCC[C@H]2C(=O)N[C@@H](CO)C(=O)N[C@@H](CC(C)C)C(=O)N2C[C@H](O)C[C@H]2C(=O)N[C@@H](Cc2c[nH]c3ccccc23)C(=O)N[C@@H](CCC(=O)O)C(=O)N[C@@H](Cc2c[nH]c3ccccc23)C(=O)N1C [Example 5254] ({CH2CO}-Y[NMeA]DPSL[Hyp]WEW[NMeNle][NMeNle]ECG-NH2; thioether N-14)
14,5.00 to 6.00,"CCCC[C@H]1C(=O)N(C)CC(=O)N[C@@H](CC(N)=O)C(=O)N[C@@H](C(C)C)C(=O)N(C)[C@@H](Cc2ccccc2)C(=O)N[C@@H](Cc2ccc(O)cc2)C(=O)N(C)CC(=O)N[C@@H](Cc2c[nH]c3ccccc23)C(=O)N[C@@H](Cc2ccc(O)cc2)C(=O)N[C@@H](CCCN)C(=O)N[C@H](C(=O)NCC(N)=O)CSCC(=O)N[C@@H](Cc2ccccc2)C(=O)N(C)[C@@H](Cc2ccncc2)C(=O)N1C (single isomer, unassigned) [Example 3638-A]"
15,8.00 to 9.00,"CCCC[C@H]1C(=O)N2CSC[C@@H]2C(=O)N[C@@H](CC(=O)O)C(=O)N[C@@H](C(C)C)C(=O)N(C)[C@@H](Cc2ccccc2)C(=O)N[C@@H](Cc2ccc(O)cc2)C(=O)N2CCC[C@@H]2C(=O)N[C@@H](Cc2c[nH]c3ccccc23)C(=O)N[C@@H](Cc2ccc(O)cc2)C(=O)N[C@@H](CC(C)C)C(=O)N[C@H](C(=O)NCC(N)=O)CSCC(=O)N[C@@H](Cc2cc(F)c(F)c(F)c2)C(=O)N(C)[C@@H](Cc2ccccc2)C(=O)N1C [Example 10093] ({CH2CO}-[Phe(3,4,5-F3)][NMeF][NMeNle][dThz]DV[NMeF]Y[dP]WYLCG-NH2; thioether N-13)"

# Same assay, conditions: PD-L1-His 10 nM, PD-1-Ig 20 nM; read-out: HTRF Human PD-L1/PD-1 Binding Assay IC50
row,pIC50,SMILES
1,8.59,CCCC[C@H]1C(=O)N(C)[C@@H](CCCC)C(=O)N[C@@H](C)C(=O)N[C@H](C(=O)NCC(N)=O)CSCC(=O)N[C@@H](Cc2ccc(O)cc2)C(=O)N2CCCC[C@H]2C(=O)N[C@@H](CC(N)=O)C(=O)N2CCC[C@H]2C(=O)N[C@@H](Cc2cnc[nH]2)C(=O)N[C@@H](CCC(N)=O)C(=O)N2C[C@H](O)C[C@H]2C(=O)N[C@@H](Cc2c[nH]c3ccccc23)C(=O)N[C@@H](CO)C(=O)N[C@@H](Cc2c[nH]c3ccccc23)C(=O)N1C [Example 1255]
